Assay: molar heat capacity at constant pressure
Conditions: 101.33 kPa, Crystal, Small (less than 1 g) adiabatic calorimetry

O=C([O][Sb]([c]1ccccc1)([c]1ccccc1)([c]1ccccc1)[c]1ccccc1)c1ccccc1 [tetraphenylantimony benzoate]
Conditions | molar heat capacity at constant pressure [J/K/mol]
5 K | 1.72
5.54 K | 2.34
5.81 K | 2.55
6.27 K | 3.24
6.56 K | 3.56
6.92 K | 4.25
7.71 K | 5.93
7.98 K | 6.39
8.34 K | 7.12
8.69 K | 7.77
9.05 K | 8.56
9.58 K | 9.73
10 K | 10.9
10.05 K | 10.9
10.43 K | 12
10.82 K | 13.1
11.21 K | 14.2
11.44 K | 14.8
11.66 K | 15.5
12.08 K | 16.7
12.66 K | 18.5
13.36 K | 20.5
14.03 K | 22.5
14.57 K | 24.4
15 K | 25.6
15.26 K | 26.4
15.94 K | 28.6
16.62 K | 30.87
17.29 K | 33.05
17.96 K | 35.26
18.62 K | 37.36
18.8 K | 38.09
19.31 K | 39.63
19.97 K | 41.7
20 K | 41.81
20.6 K | 43.6
22.51 K | 49.65
25 K | 57.77
25.94 K | 60.95
29.45 K | 71.99
30 K | 73.7
31.45 K | 78.36
33 K | 82.85
33.62 K | 84.64
35 K | 88.8
35.87 K | 91.21
36.5 K | 93.12
40 K | 102.8
40.06 K | 103.7
43 K | 111
45 K | 115.8
46.68 K | 120.9
49.76 K | 127.9
50 K | 128
53.38 K | 136.9
57.02 K | 145.6
60 K | 151.4
60.66 K | 154.2
64.31 K | 162
67.97 K | 169.5
70 K | 174.2
71.63 K | 177
75.29 K | 185.6
78 K | 192
80 K | 195.9
82.52 K | 200.4
83.53 K | 202.5
85.67 K | 207
88.37 K | 212.3
90 K | 214.8
90.22 K | 215.5
92.48 K | 218.9
93.76 K | 221
95.63 K | 223.7
99.16 K | 228.6
100 K | 229.7
102.7 K | 234
106.23 K | 240
109.78 K | 244.9
113.32 K | 250.2
116 K | 255
119.8 K | 262
120 K | 262
123.36 K | 267.2
126.75 K | 273.3
128 K | 275.2
132.8 K | 282.4
136 K | 287
139.71 K | 293.3
140 K | 293.6
144.47 K | 301.3
146.16 K | 303.1
151.28 K | 310.8
155 K | 315
158.48 K | 321.9
160 K | 324.2
161 K | 326
164.87 K | 332.4
168.1 K | 336.4
169.28 K | 338.2
172.52 K | 344.3

Reference: the NIST ThermoML archive (doi:10.1016/j.jct.2018.11.011)
